In patent US6562820B2, “Method for treatment and prevention of mastitis” (Pharmacia & Upjohn Company, priority 2000, dated 2003):

Columns and labels:
Format in all cases: in vivo
[1] = system: cow in lactation with moderate mastitis; assay: Treatment of mastitis in a lactating cow with oxazolidinone plus bovine lactoferrin by intramammary infusion; details: 3-lactation cow in lactation, 300 mg in combination with 3 g bovine lactoferrin once per day for 5 consecutive days, composite suspension
Experimental: A 3-lactation cow in lactation with moderate mastitis is administered 300 mg of the oxazolidinone in EXAMPLE 2 in combination with administration of 3 g of bovine lactoferrin, once per day for 5 consecutive days. The oxazolidinone and the lactoferrin are prepared in a composite suspension formulation and administered by intramammary infusion.

cow without mastitis = assay: Prevention of mastitis in a cow at the start of dry off period by intramammary infusion; details: 2-lactation cow without mastitis, single dose of 250 mg at start of dry off period, solution, mastitis occurs in untreated dry cows of same herd
Experimental: A 2-lactation cow without mastitis is administered a single dose of 250 mg of the oxazolidinone in EXAMPLE 2 at the start of dry off period. The oxazolidinone is formulated as a solution and administered by intramammary infusion. Although mastitis occurs in other dry cows that are in the same herd but are not treated with the oxazolidinones, the cow treated is not infected.

[2] = system: cow in dry period with moderate mastitis; assay: Treatment of mastitis in a dry-period cow by intramammary infusion; details: 3-lactation cow in dry period, 300 mg once per day for 5 days, solution
Experimental: A 3-lactation cow in dry period with moderate mastitis is administered 300 mg of the oxazolidinone in EXAMPLE 1, once per day for 5 days. The oxazolidinone is formulated as a solution and administered by intramammary infusion.

Structure (SMILES) | mastitis status at the end of the treatment [1] | occurrence of mastitis infection in treated cow (cow without mastitis) | mastitis status at the end of the treatment [2]
CC(=O)NC[C@H]1CN(c2ccc(N3CCSCC3)c(F)c2)C(=O)O1 [EXAMPLE 2, N-[[(5S)-3-[3-fluoro-4-(4-thiomorpholinyl)phenyl]-2-oxo-1,3-oxazolidin-5-yl]methyl]acetamide] | the mastitis is gone | not infected | 
CC(=O)NC[C@H]1CN(c2ccc(N3CCOCC3)c(F)c2)C(=O)O1 [EXAMPLE 1, (S)-N-[[3-[3-fluoro-4-(4-morpholinyl)phenyl]-2-oxo-5-oxazolidinyl]methyl]acetamide] |  |  | the mastitis is gone
